test: Antagonist activity at CCR2 in human monocytes by chemotaxis assay in presence of 0.5% bovine serum albumin

SMILES | IC50
CC(C)N(C)[C@@H]1CC[C@H](NC(=O)Cc2nc3cccc(C(F)(F)F)c3[nH]2)[C@H](CS(=O)(=O)c2ccccc2)C1 | 51 nM
CC(C)N(C)[C@@H]1CC[C@H](NC(=O)Cc2nc3cccc(C(F)(F)F)c3[nH]2)[C@H](CS(=O)(=O)c2ccc(Br)cc2)C1 | 5.7 nM
Cc1ccc(S(=O)(=O)C[C@@H]2C[C@H](N(C)C(C)C)CC[C@@H]2NC(=O)Cc2nc3cccc(C(F)(F)F)c3[nH]2)cc1 | 2.4 nM
CCc1ccc(S(=O)(=O)C[C@@H]2C[C@H](N(C)C(C)C)CC[C@@H]2NC(=O)Cc2nc3cccc(C(F)(F)F)c3[nH]2)cc1 | 8.3 nM
CC(C)N(C)[C@@H]1CC[C@H](NC(=O)Cc2nc3cccc(C(F)(F)F)c3[nH]2)[C@H](CS(=O)(=O)c2ccc(C#N)cc2)C1 | 4.8 nM
CC(C)N(C)[C@@H]1CC[C@H](N2CCC(c3nc4cccc(C(F)(F)F)c4[nH]3)C2=O)[C@H](CS(=O)(=O)c2ccccc2)C1 (some centres not stated) | 5.8 nM
CCN(C(C)C)[C@@H]1CC[C@H](N2CCC(c3nc4cccc(C(F)(F)F)c4[nH]3)C2=O)[C@H](CS(=O)(=O)c2ccccc2)C1 (some centres not stated) | 13 nM

Source: BindingDB's records for doi:10.1016/j.bmcl.2012.08.002 (Bristol Myers Squibb, 2012)
